Results published in PubChem BioAssay (NCI).
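GI50 marks 50% less growth. TGI: total growth inhibition.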

Experiments:
Assay in all cases: growth of human tumour cells (NCI), 384-well format
[1] = test system: EKVX NSCLC
[2] = test system: SN12C renal
[3] = test system: ACHN renal
[4] = test system: MOLT-4 leukemia
[5] = test system: OVCAR-4 ovarian
[6] = test system: HL-60(TB) leukemia
[7] = test system: CCRF-CEM leukemia
[8] = test system: HS 578T breast
[9] = test system: MDA-MB-231 breast
[10] = test system: SF-295 CNS
[11] = test system: NCI-H522 lung
[12] = test system: SNB-19 CNS
[13] = test system: HT29 colon
[14] = test system: TK-10 renal
[15] = test system: NCI/ADR-RES ovarian
[16] = test system: NCI-H23 lung
[17] = test system: SK-MEL-28 melanoma
[18] = test system: HCT-15 colon
[19] = test system: SNB-75 CNS
[20] = test system: A498 renal
[21] = test system: SK-MEL-2 melanoma
[22] = test system: SF-268 CNS
[23] = test system: M14 melanoma
[24] = test system: SW-620 colon
[25] = test system: T-47D breast
[26] = test system: NCI-H322M lung
[27] = test system: MDA-MB-468 breast
[28] = test system: SF-539 CNS
[29] = test system: A549 NSCLC
[30] = test system: DU-145 prostate
[31] = test system: MDA-MB-435 melanoma
[32] = test system: MCF7 breast
[33] = test system: BT-549 breast
[34] = test system: SR leukemia
[35] = test system: SK-MEL-5 melanoma
[36] = test system: OVCAR-5 ovarian
[37] = test system: HCC-2998 colon
[38] = test system: UACC-257 melanoma
[39] = test system: U251 glioblastoma
[40] = test system: HOP-62 NSCLC
[41] = test system: HOP-92 NSCLC
[42] = test system: OVCAR-3 ovarian
[43] = test system: PC-3 prostate
[44] = test system: OVCAR-8 ovarian
[45] = test system: NCI-H226 lung
[46] = test system: KM12 colon
[47] = test system: MALME-3M melanoma
[48] = test system: IGROV1 ovarian
[49] = test system: 786-0 renal
[50] = test system: CAKI-1 renal
[51] = test system: COLO 205 colon
[52] = test system: SK-OV-3 ovarian
[53] = test system: NCI-H460 NSCLC
[54] = test system: RPMI-8226 leukemia
[55] = test system: UACC-62 melanoma
[56] = test system: RXF 393 renal
[57] = test system: LOX IMVI melanoma
[58] = test system: K-562 leukemia
[59] = test system: UO-31 renal

In the case of N[C@H]1C[C@@H]1c1ccc(-c2cccc(O)c2)cc1, the GI50 [1] is reported as 30.8 µM, the TGI [1] is reported as greater than 100 µM and the GI50 [2] is reported as 44.7 µM. For the same molecule, the TGI [2] was greater than 100 µM, the GI50 [3] was 27 µM and the TGI [3] was 61.7 µM. It also gave a GI50 [4] of 14.7 µM, a TGI [4] of 28 µM and a GI50 [5] of 39.2 µM. The TGI [5] was greater than 100 µM, the GI50 [6] was 14.3 µM and the TGI [6] was 27.5 µM. It also gave a GI50 [7] of 15 µM, a TGI [7] of 28.4 µM and a GI50 [8] of 16.9 µM. For the same molecule, the TGI [8] was 34.5 µM, the GI50 [9] was 21.1 µM and the TGI [9] was 50.3 µM. It also gave a GI50 [10] of 33.9 µM, a TGI [10] greater than 100 µM and a GI50 [11] of 17.9 µM. For the same molecule, the TGI [11] was 36.6 µM, the GI50 [12] was 42.8 µM and the TGI [12] was greater than 100 µM. For the same molecule, the GI50 [13] was 24.6 µM, the TGI [13] was 64.3 µM and the GI50 [14] was 31.5 µM. For the same molecule, the TGI [14] was 93.3 µM, the GI50 [15] was 38.8 µM and the TGI [15] was greater than 100 µM. The GI50 [16] was 23.3 µM, the TGI [16] was 65.6 µM and the GI50 [17] was 22.5 µM. The TGI [17] was 43.9 µM, the GI50 [18] was 26.7 µM and the TGI [18] was 68 µM. For the same molecule, the GI50 [19] was 18.9 µM, the TGI [19] was 59.4 µM and the GI50 [20] was 20.3 µM. For the same molecule, the TGI [20] was 60.3 µM, the GI50 [21] was 32.5 µM and the TGI [21] was 48.8 µM. It also gave a GI50 [22] of 36.6 µM, a TGI [22] greater than 100 µM and a GI50 [23] of 20.1 µM. The TGI [23] was 36.5 µM, the GI50 [24] was 22.5 µM and the TGI [24] was 43.5 µM. The GI50 [25] was 19.2 µM, the TGI [25] was 38.4 µM and the GI50 [26] was 74.5 µM. The TGI [26] was greater than 100 µM, the GI50 [27] was 4.18 µM and the TGI [27] was 20.1 µM. It also gave a GI50 [28] of 24.6 µM, a TGI [28] of 63.1 µM and a GI50 [29] of 44.9 µM. It also gave a TGI [29] greater than 100 µM, a GI50 [30] of 48.7 µM and a TGI [30] greater than 100 µM. The GI50 [31] was 20.9 µM, the TGI [31] was 46.4 µM and the GI50 [32] was 36 µM. For the same molecule, the TGI [32] was greater than 100 µM, the GI50 [33] was 19.5 µM and the TGI [33] was 48.8 µM. The GI50 [34] was 18.8 µM, the TGI [34] was 33.1 µM and the GI50 [35] was 14.1 µM. For the same molecule, the TGI [35] was 27.2 µM, the GI50 [36] was 30.4 µM and the TGI [36] was greater than 100 µM. For the same molecule, the GI50 [37] was 18.4 µM, the TGI [37] was 38.7 µM and the GI50 [38] was 19.2 µM. It also gave a TGI [38] of 34.4 µM, a GI50 [39] of 24.1 µM and a TGI [39] of 55.5 µM. The GI50 [40] was 17 µM, the TGI [40] was 45 µM and the GI50 [41] was 29.4 µM. The TGI [41] was 72.9 µM, the GI50 [42] was 40.6 µM and the TGI [42] was greater than 100 µM. The GI50 [43] was 29.6 µM, the TGI [43] was 95.1 µM and the GI50 [44] was 31.8 µM. It also gave a TGI [44] of 99.8 µM, a GI50 [45] of 30.3 µM and a TGI [45] of 96.1 µM. For the same molecule, the GI50 [46] was 20.1 µM, the TGI [46] was 37.8 µM and the GI50 [47] was 16.8 µM. For the same molecule, the TGI [47] was 31.1 µM, the GI50 [48] was 44.1 µM and the TGI [48] was greater than 100 µM. For the same molecule, the GI50 [49] was 30.1 µM, the TGI [49] was greater than 100 µM and the GI50 [50] was 24.6 µM. It also gave a TGI [50] of 50.9 µM, a GI50 [51] of 43.9 µM and a TGI [51] greater than 100 µM. For the same molecule, the GI50 [52] was 20 µM, the TGI [52] was 48.8 µM and the GI50 [53] was 18.1 µM. The TGI [53] was 34.6 µM, the GI50 [54] was 18.4 µM and the TGI [54] was 34.9 µM. The GI50 [55] was 18.7 µM, the TGI [55] was 40.8 µM and the GI50 [56] was 22 µM. For the same molecule, the TGI [56] was 46.3 µM.

Molecule CSc1nc(N)cc(Oc2ccc(-c3nc(Nc4cccc(C(F)(F)F)c4)n[nH]3)cc2)n1 has a GI50 [1] of 0.599 µM, a TGI [1] of 4.32 µM and a GI50 [2] of 0.671 µM. For the same molecule, the TGI [2] was 5.1 µM, the GI50 [3] was 0.618 µM and the TGI [3] was 2.73 µM. It also gave a GI50 [4] of 0.187 µM, a TGI [4] of 0.337 µM and a GI50 [5] of 0.457 µM. It also gave a TGI [5] of 2.21 µM, a GI50 [6] of 0.18 µM and a TGI [6] of 0.325 µM. It also gave a GI50 [7] of 0.175 µM, a TGI [7] of 0.322 µM and a GI50 [8] of 0.191 µM. The TGI [8] was 0.423 µM, the GI50 [9] was 0.487 µM and the TGI [9] was 10 µM. For the same molecule, the GI50 [10] was 0.458 µM, the TGI [10] was 1.9 µM and the GI50 [57] was 0.523 µM. It also gave a TGI [57] of 1.79 µM, a GI50 [11] of 0.241 µM and a TGI [11] of 0.625 µM. It also gave a GI50 [12] of 0.637 µM, a TGI [12] of 5.17 µM and a GI50 [13] of 0.354 µM. For the same molecule, the TGI [13] was 1.43 µM, the GI50 [14] was 1.51 µM and the TGI [14] was 6.94 µM. For the same molecule, the GI50 [15] was 0.676 µM, the TGI [15] was 2.39 µM and the GI50 [16] was 0.352 µM. The TGI [16] was 1.94 µM, the GI50 [17] was 0.582 µM and the TGI [17] was 3.64 µM. For the same molecule, the GI50 [18] was 0.4 µM, the TGI [18] was 1.45 µM and the GI50 [19] was 0.34 µM. The TGI [19] was 1.97 µM, the GI50 [20] was 0.421 µM and the TGI [20] was 1.92 µM. For the same molecule, the GI50 [22] was 0.463 µM, the TGI [22] was 2.52 µM and the GI50 [23] was 0.323 µM. It also gave a TGI [23] of 1.21 µM, a GI50 [24] of 0.431 µM and a TGI [24] of 6.37 µM. The GI50 [25] was 0.294 µM, the TGI [25] was 16.9 µM and the GI50 [26] was 1.85 µM. It also gave a TGI [26] of 6.78 µM, a GI50 [27] of 0.202 µM and a TGI [27] of 0.414 µM. The GI50 [28] was 0.349 µM, the TGI [28] was 1.35 µM and the GI50 [29] was 0.625 µM. The TGI [29] was 5.52 µM, the GI50 [30] was 0.998 µM and the TGI [30] was 4.08 µM. The GI50 [31] was 0.208 µM, the TGI [31] was 0.437 µM and the GI50 [32] was 0.317 µM. For the same molecule, the TGI [32] was 1.84 µM, the GI50 [33] was 0.385 µM and the TGI [33] was 1.62 µM. It also gave a GI50 [34] of 0.174 µM, a TGI [34] of 0.333 µM and a GI50 [35] of 0.237 µM. The TGI [35] was 0.55 µM, the GI50 [36] was 2.02 µM and the TGI [36] was 6.29 µM. For the same molecule, the GI50 [37] was 0.367 µM, the TGI [37] was 1.5 µM and the GI50 [38] was 0.284 µM. The TGI [38] was 0.902 µM, the GI50 [39] was 0.581 µM and the TGI [39] was 2.11 µM. For the same molecule, the GI50 [40] was 0.452 µM, the TGI [40] was 2.19 µM and the GI50 [41] was 0.569 µM. The TGI [41] was 3.25 µM, the GI50 [42] was 0.229 µM and the TGI [42] was 0.492 µM. The GI50 [43] was 0.611 µM, the TGI [43] was 3.09 µM and the GI50 [44] was 0.645 µM. For the same molecule, the TGI [44] was 2.46 µM, the GI50 [45] was 1.07 µM and the TGI [45] was 3.63 µM. The GI50 [46] was 0.425 µM, the TGI [46] was 1.85 µM and the GI50 [47] was 0.315 µM. The TGI [47] was 1 µM, the GI50 [48] was 0.676 µM and the TGI [48] was 3.53 µM. It also gave a GI50 [49] of 0.368 µM, a TGI [49] of 1.59 µM and a GI50 [50] of 0.548 µM. The TGI [50] was 5.09 µM, the GI50 [51] was 0.489 µM and the TGI [51] was 4.12 µM. It also gave a GI50 [52] of 0.394 µM, a TGI [52] of 2.22 µM and a GI50 [58] of 0.32 µM. It also gave a TGI [58] of 0.968 µM, a GI50 [53] of 0.28 µM and a TGI [53] of 0.756 µM. The GI50 [54] was 0.179 µM, the TGI [54] was 0.368 µM and the GI50 [59] was 0.502 µM. For the same molecule, the TGI [59] was 14.3 µM, the GI50 [55] was 0.377 µM and the TGI [55] was 2.86 µM. The GI50 [56] was 0.326 µM and the TGI [56] was 1.03 µM.
